We go through three compounds from ChEMBL document CHEMBL3616380, “Photocytotoxicity, cellular uptake and subcellular localization of amidinophenylporphyrins as potential photodynamic therapeutic agents: An in vitro cell study” (Bioorg Med Chem Lett, 2015).

Data set [1] in a line: Photocytotoxicity against human HK1 cells assessed as cell viability at 4 uM measured 24 hrs post 12 J/cm'2 irradiation by MTT reduction assay. The format is functional. The settings on record: HK-1, light or radiation study, read-out: Activity. A general note: Formazan colour is commonly taken as a measure of viable cells.
Data set [2] in a line: Cellular uptake in human HK1 cells assessed per 10^6 cells at 8 uM after 1 to 24 hrs by flow cytometry. Format: ADME, cell-based. The settings on record: hk1, 8 µM. (In flow cytometry, cells or beads pass a laser one at a time.)
Data set [3] can be described thus: Photocytotoxicity against human HK1 cells assessed as cell viability at 8 uM measured 24 hrs post 4 J/cm'2 irradiation by MTT reduction assay. Format: functional. The following applies: HK-1, light or radiation study, read-out: Activity.
The nature of data set [4]: Drug uptake in lysosomes of human HK1 cells at 8 uM after 24 hrs by confocal microscopy analysis. The format is ADME, cell-based, Lysosome. The following applies: hk1, 24 h.
Data set [5] in a line: Dark cytotoxicity against human HK1 cells assessed as cell viability at 1 to 8 uM after 24 hrs by MTT reduction assay. Format: cell-based. The settings on record: hk1, 24 h.
Data set [6] is described as follows: Drug uptake in mitochondria of human HK1 cells at 8 uM after 24 hrs by confocal microscopy analysis. Format: ADME. The following applies: hk1, 24 h.

For the compound `N=C(N)c1ccc(-c2c3nc(c(-c4ccc(C(=N)N)cc4)c4ccc([nH]4)c(-c4ccc(C(=N)N)cc4)c4nc(c(-c5ccc(C(=N)N)cc5)c5ccc2[nH]5)C=C4)C=C3)cc1`, in data set [1], the viability at 4 µM was determined as 90%. The Drug uptake result in data set [2] and in data set [4] was “Active” each time. For the same compound, in data set [3], the viability at 8 µM was found to be 50%. Besides, in data set [5], the Activity result is “Non-toxic”.
For the compound `N=C(N)c1ccc(-c2c3nc(c(-c4ccc(C(=N)N)cc4)c4ccc([nH]4)c(-c4ccc(C(=N)N)cc4)c4nc(c(-c5ccc(OCCCOc6ccc(-c7c8nc(c(-c9ccccc9)c9ccc([nH]9)c(-c9ccccc9)c9nc(c(-c%10ccccc%10)c%10ccc7[nH]%10)C=C9)C=C8)cc6)cc5)c5ccc2[nH]5)C=C4)C=C3)cc1`, the viability at 4 µM in data set [1] worked out at 20%. Moreover, the Drug uptake result in data set [2] and in data set [4] was “Active” in each case. In data set [5], the Activity entry is on record as “Non-toxic”.
For `C[n+]1ccc(-c2c3nc(c(-c4cc[n+](C)cc4)c4ccc([nH]4)c(-c4cc[n+](C)cc4)c4ccc([nH]4)c(-c4cc[n+](C)cc4)c4nc2C=C4)C=C3)cc1` [TMPYP4], the viability at 4 µM in data set [1] was 58%. Further, the Drug uptake entry in data set [6] and in data set [2] was “Active” in each case. Moreover, the Activity entry in data set [5] is recorded as “Non-toxic”.
